Experimental data published in the supplement of paper PMC10307832.

Assays:
Test in all cases: relative viability (nuclei count vs DMSO), 5 days (fraction); higher = more cells survive
Ibrutinib + Alpelisib = compound: C=CC(=O)N1CCC[C@@H](n2nc(-c3ccc(Oc4ccccc4)cc3)c3c(N)ncnc32)C1 [Ibrutinib] + Cc1nc(NC(=O)N2CCC[C@H]2C(N)=O)sc1-c1ccnc(C(C)(C)C(F)(F)F)c1 [Alpelisib] (partner 2 µM)
Summary of the method: (§1)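 Lung cancer cell lines were pin-tool dosed in 1536-well plates on the day after seeding, with either a lone drug or a fixed anchor-drug dose plus five library-drug doses (not always all listed) in √10 steps. Nuclei were counted on 4× images after 5 days. Relative viability is the ratio of treated-well to vehicle-well nuclei counts, with each value a median of duplicate plates.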

BMX-IN-1 + Trametinib = compound: C=CC(=O)Nc1cc(-n2c(=O)ccc3cnc4ccc(-c5ccc(NS(C)(=O)=O)cc5)cc4c32)ccc1C [BMX-IN-1] + CC(=O)Nc1cccc(-n2c(=O)n(C3CC3)c(=O)c3c(Nc4ccc(I)cc4F)n(C)c(=O)c(C)c32)c1 [Trametinib] (partner 0.02 µM)
Summary of the method: as §1

BMX-IN-1 + Vorinostat = compound: C=CC(=O)Nc1cc(-n2c(=O)ccc3cnc4ccc(-c5ccc(NS(C)(=O)=O)cc5)cc4c32)ccc1C [BMX-IN-1] + O=C(CCCCCCC(=O)Nc1ccccc1)NO [Vorinostat] (partner 1 µM)
Summary of the method: as §1

PAC-1 + Dasatinib = compound: C=CCc1cccc(/C=N/NC(=O)CN2CCN(Cc3ccccc3)CC2)c1O [PAC-1] + Cc1nc(Nc2ncc(C(=O)Nc3c(C)cccc3Cl)s2)cc(N2CCN(CCO)CC2)n1 [Dasatinib] (partner 0.075 µM)
Summary of the method: as §1

Cell Line | relative viability (Ibrutinib + Alpelisib; first compound 0.01581 µM) | relative viability (Ibrutinib + Alpelisib; first compound 0.05 µM) | relative viability (Ibrutinib + Alpelisib; first compound 0.1581 µM) | relative viability (Ibrutinib + Alpelisib; first compound 0.5 µM) | relative viability (BMX-IN-1 + Trametinib; first compound 0.02 µM) | relative viability (BMX-IN-1 + Trametinib; first compound 0.2 µM) | relative viability (BMX-IN-1 + Trametinib; first compound 0.6325 µM) | relative viability (BMX-IN-1 + Trametinib; first compound 2 µM) | relative viability (BMX-IN-1 + Vorinostat; first compound 0.02 µM) | relative viability (BMX-IN-1 + Vorinostat; first compound 0.2 µM) | relative viability (BMX-IN-1 + Vorinostat; first compound 0.6325 µM) | relative viability (BMX-IN-1 + Vorinostat; first compound 2 µM) | relative viability (PAC-1 + Dasatinib; first compound 0.02 µM) | relative viability (PAC-1 + Dasatinib; first compound 0.06325 µM) | relative viability (PAC-1 + Dasatinib; first compound 0.2 µM) | relative viability (PAC-1 + Dasatinib; first compound 2 µM) | relative viability (Ibrutinib + Alpelisib; first compound 0.005 µM)
201T | 0.97 | 1.03 | 1 | 0.938 | 0.703 | 0.733 | 0.744 | 0.694 | 1.2 | 1 | 1.05 | 1.05 | 0.571 | 0.595 | 0.589 | 0.58 | 
A549 | 0.681 | 0.634 | 0.854 | 0.761 |  |  |  |  |  |  |  |  |  |  |  |  | 0.624
A-427 | 1.08 | 1.11 | 1.09 | 1.14 | 0.691 | 0.727 | 0.79 | 0.722 | 0.841 | 0.897 | 0.931 | 0.856 | 0.77 | 0.665 | 0.666 | 0.697 | 1.06
ABC-1 | 0.813 | 1.05 | 1.17 | 0.983 |  |  |  |  | 1.34 | 1.6 | 1.39 | 1.21 | 0.501 | 0.495 | 0.541 | 0.484 | 0.922
BEN | 0.906 | 0.944 | 0.891 | 1.06 | 1.15 | 0.909 | 0.96 | 1.03 | 0.621 | 0.517 | 0.585 | 0.535 | 0.272 | 0.366 | 0.318 | 0.327 | 0.785
CAL-12T | 0.831 | 1.14 | 1.18 | 0.698 | 0.342 | 0.318 | 0.31 | 0.36 | 1.11 | 0.951 | 0.756 | 0.812 | 0.288 | 0.393 | 0.459 | 0.404 | 
COR-L23 | 0.702 | 0.73 | 0.775 | 0.865 | 0.71 | 0.695 | 0.623 | 0.662 | 0.448 | 0.524 | 0.635 | 0.421 | 0.472 | 0.48 | 0.453 | 0.506 | 0.947
COR-L 105 | 0.762 | 0.866 | 1.11 | 0.43 | 0.427 | 0.444 | 0.422 | 0.403 | 0.943 | 0.886 | 0.996 | 0.716 | 0.361 | 0.365 | 0.34 | 0.412 | 0.899
Calu-6 | 0.993 |  | 1.06 | 0.93 |  |  |  |  |  |  |  |  |  |  |  |  | 1.02
ChaGo-K-1 |  |  |  |  | 0.735 | 0.986 | 0.891 | 0.91 | 0.91 | 0.984 | 0.835 | 0.768 | 0.653 | 0.647 | 0.534 | 0.619 | 
EBC-1 | 0.856 | 0.79 | 0.936 | 0.895 |  |  |  |  |  |  |  |  |  |  |  |  | 0.852
EKVX | 0.776 | 0.829 | 0.799 | 0.562 | 0.308 | 0.39 | 0.375 | 0.369 | 0.668 | 0.653 | 0.957 | 0.698 | 0.587 | 0.606 | 0.569 | 0.515 | 
EMC-BAC-2 | 0.697 | 0.75 | 0.741 | 0.547 | 0.827 | 0.906 | 0.96 | 1.04 | 0.497 | 0.58 | 0.414 | 0.45 | 0.388 | 0.303 | 0.346 | 0.326 | 0.728
EPLC-272H | 1.02 | 0.836 | 0.848 | 0.759 | 0.27 | 0.257 | 0.311 | 0.318 | 0.351 | 0.288 | 0.417 | 0.383 | 0.447 | 0.365 | 0.387 | 0.268 | 
H3255 | 0.699 | 0.474 | 1.05 | 0.214 | 0.725 | 0.624 | 0.599 | 0.672 | 0.787 | 0.812 | 0.902 | 0.76 | 0.361 | 0.288 | 0.284 | 0.33 | 0.555
HARA | 0.763 | 0.681 | 0.974 | 0.332 | 0.907 | 0.449 | 0.492 | 0.654 | 0.507 | 0.549 | 0.446 | 0.506 | 0.336 | 0.251 | 0.26 | 0.26 | 0.903
HCC-15 | 0.867 | 0.99 | 0.853 | 0.851 | 0.268 | 0.411 | 0.388 | 0.396 | 0.833 | 0.93 | 0.86 | 0.869 | 0.631 | 0.675 | 0.606 | 0.619 | 0.956
HCC-44 | 0.658 | 0.874 | 0.87 | 0.724 | 1.11 | 1.08 | 1.14 | 1.03 | 1.16 | 1.14 | 1.19 | 1.12 |  |  |  |  | 0.864
HCC-78 | 0.315 | 0.292 | 0.391 | 0.24 | 0.801 | 0.967 | 0.717 | 0.896 | 0.383 | 0.438 | 0.431 | 0.41 | 0.335 | 0.331 | 0.404 | 0.394 | 0.346
HCC-366 | 0.496 | 0.372 | 0.414 | 0.466 | 0.36 | 0.352 | 0.376 | 0.361 | 0.791 | 0.342 | 0.373 | 0.33 | 0.618 | 0.558 | 0.617 | 0.733 | 0.459
HCC-827 | 0.819 | 0.901 | 0.992 | 0.278 | 0.558 | 0.537 | 0.475 | 0.518 | 0.485 | 0.872 | 1.11 | 0.798 | 0.277 | 0.325 | 0.297 | 0.293 | 0.952
HOP-62 | 0.954 | 1.02 | 1.2 | 0.918 | 0.44 | 0.379 | 0.366 | 0.341 | 0.742 | 0.755 | 0.613 | 0.559 | 0.665 | 0.68 | 0.623 | 0.641 | 0.638
